Laboratory results from patent US12590965B2, “Palmitoyl protein biomarkers in purified extracellular vesicles for early identification of clinically significant prostate cancer” (priority 2012, dated 2026).
Entries after “also recorded” stand apart in the source; their conditions may differ.

Legend:
PC3 cells = test: Titration of 2-bromopalmitate to a non-toxic concentration in PC3 cells; type: cell-based; conditions: 24 hours, serum-starvation
Method: (§1) The PC3 cell line was obtained from the American Type Culture Collection (ATCC). The DU145DIAPH3-KD cell line, stably transfected with DIAPH3 shRNA, was generated in our laboratories. PC3 and DU145DIAPH3-KD cell lines were cultured in DMEM (Invitrogen). All cells were supplemented with 10% foetal bovine serum (Denville Scientific), 2 mM L-glutamine (Invitrogen) and 1% PenStrep (Invitrogen). DU145DIAPH3-KD cells were additionally selected with 2 μg/mL puromycin as described. All cells were grown at 37° C. and 5% CO2. Cell viability of the EV-producer cells was tested with the 0.4% Trypan Blue (Sigma) exclusion method. All cell lines were routinely tested for mycoplasma contamination by using the MycoAlert PLUS Mycoplasma Detection Kit (Lonza). Finally, in order to collect EVs from cells in which palmitoylation was inhibited, PC3 cells were treated for 24 hours with 2-bromohexadecanoic acid (Sigma), also known as 2-bromopalmitate (0.5, 1, 5, 10, 20, 50 and 100 μM), in serum-starvation.
Finally, we investigated if palmitoylation had any influence on the localization of select proteins in EVs. To do so, we titrated the concentration of 2-bromopalmitate (2-BP), a general inhibitor of palmitoylation, to a non-toxic concentration of 10 μM in PC3 cells (data not shown) in order to avoid any alterations in the EV shedding (FIG. 18(d)) and recovery of EV-protein (FIG. 18(e)). […]

[1] = system: palmitoylation in PC3 cells; test: Immunoblot of protein abundance in PC3 L- and S-EVs after inhibition of palmitoylation; type: cell-based
Method: as §1
The isolation of EVs was conducted as previously described with minor modifications (Vagner et al. Large extracellular vesicles carry most of the tumour DNA circulating in prostate cancer patient plasma. J Extracell Vesicles. 2018; 7(1):1505403; Minciacchi et al. Large oncosomes contain distinct protein cargo and represent a separate functional class of tumor-derived extracellular vesicles. Oncotarget. 2015; 6(13):11327-11341; Minciacchi et al. MYC mediates large oncosome-induced fibroblast reprogramming in prostate cancer. Cancer Res. 2017; 77(9):2306-2317). Cells were grown on 18×150 cm^2-cell culture plates (Corning) until 90% confluence, washed in PBS and serum-starved for 24 hours before the collection of conditioned cell media. The conditioned media was cleared by differential centrifugation of floating cells at 300 g, of cell debris at 2,800 g for 10 min, and spun in an ultracentrifuge at 10,000 g for 30 min (4° C., k-factor 2547.2) for the collection of L-EVs. The supernatant was then spun at 100,000 g for 60 min (4° C., k-factor 254.7) for the collection of S-EVs. Both 10,000 g and 100,000 g pellets were then subjected to Optiprep™ (Sigma) density gradient purification. Fresh pelleted EVs were resuspended in 0.2 μm-filtered PBS and deposited at the bottom of an ultracentrifuge tube. […]
Immunoblotting analysis was performed as described (Zhou et al. Low-background Acyl-biotinyl exchange largely eliminates the co-isolation of non-S-Acylated proteins and enables deep S-Acylproteomic analysis. Anal Chem. 2019; 91(15):9858-9866). […] Densitometric quantification of films was performed with the ImageJ software (v1.52a). […]

[2] = 10 μM 2-BP for 24 h, PC3 L- and S-EVs

CCCCCCCCCCCCCCC(Br)C(=O)O (centres unmarked) [2-BP, 2-bromohexadecanoic acid]
non-toxic concentration (PC3 cells): 10 µM
ABCC4 in EVs [1, 2]: decrease; also recorded: reduced
STEAP1 in EVs [1, 2]: decrease
STEAP2 in EVs [1, 2]: decrease; also recorded: reduced
Cav-1 levels in EVs ([1]; 10 μM 2-BP, PC3 EVs): did not change; also recorded: did not alter the localization
